The values that follow come from US20200101014A1, “Stable Theranostic and Therapeutic Nanoemulsions Using Triphilic Semifluorinated Amphiphiles” (Wisconsin Alumni Research Foundation, priority 2017, published 2020).

Structures are written as SMILES.

One series deals with Zebrafish (Danio rerio). Kind of series: In vivo developmental toxicity study, embryo-larval zebrafish model. Details: species or system Zebrafish (Danio rerio) of the AB strain. The procedure: In Vivo Developmental Toxicity Study
Due to the novel nature of the M2F8H18 amphiphile, there is no preceding toxicity data. Though some predictions can be made from previous work in the Mecozzi lab, a thorough study of developmental effects related to M2F8H18 was performed using an embryo-larval zebrafish model. This animal model was selected because zebrafish eggs remain transparent from fertilization until the tissues become dense as a mature adult. Several developmental endpoints can be simultaneously monitored providing valuable developmental toxicity data for new chemicals. Following short-term exposure, survival, and hatching, non-lethal malformations were monitored including curved body axis and pericardia edemas. Mortality rate was also monitored.
Zebrafish (Danio rerio) of the AB strain were obtained from our collaborator, Dr. Michael Taylor at the University of Madison-Wisconsin School of Pharmacy, where the fish were cultured until sexual maturation for crossing. The fish were maintained in a light/dark cycle of 14:10 hat 28.5° C. in egg water (0.03% Instant Ocean, Blacksburg, Va., USA). Zebrafish were fed with live brine shrimps (Artemia nauplii) twice a day. Embryos were obtained from healthy adult fish with a ratio of 1:2 for female to male. Six breeding groups were placed in separate spawning aquariums, equipped with a mesh bottom to prevent the eggs from being cannibalized. Crossing was induced in the morning when the light was turned on. One hour later, eggs free of macroscopically discernable symptoms of infection and disease were collected, rinsed with egg water and transferred into Petri dishes until chemical exposure.
The embryo-larvae toxicity assay was carried out according to previous studies in the Taylor and Mecozzi laboratories. Briefly, 8 fertilized eggs of 2 hpf (hours post-fertilization) stages were placed into each well of a 24-well plate and each filled with 600 μL egg water. Six concentrations (1 mM, 333 μM, 111 μM, 37 μM, 12.3 μM, and 4.1 μM) plus two controls were plated. The plate was covered and incubated at 28.5° C. in a light/dark cycle of 14:10 throughout the 96 hpf exposure period. The observations of zebrafish development were made directly in the well using a stereomicroscope (Nikon SMZ18) every 24 hr. Endpoints including mortality, spontaneous movement, hatching success, pericardial edema, and curved body axis, were selected to monitor the effects of M2F8H18. Embryos and larvae were considered dead when no heartbeat was observed. The number of hatched embryos and a cumulative mortality tally was recorded every 24 hr from 2 hpf. The number of larvae displaying pericardial edemas or curved body axes were also recorded every 24 hr from 2 hpf. […]

Series [1] deals with A549 non-small cell lung cancer cells. Conditions: read-out: Reported IC50 for the A549 cell line; cited from earlier work.
For series [2] the following is noted: cited from earlier work.

As a reminder, the IC50 is the concentration that gives 50% inhibition.

As for `O=C(O)C(F)(F)C(F)(F)C(F)(F)C(F)(F)C(F)(F)C(F)(F)C(F)(F)F` [PFOA, perfluorooctanoic acid], the Malformations result in the series on Zebrafish (Danio rerio) (333 μM) is “curved body axis and mild pericardia edemas”; in the series on Zebrafish (Danio rerio) (lower PFOA concentrations (111 μM and lower)), “No other malformations were noted”. For the same compound, the “Mortality (fish)” value with Zebrafish (Danio rerio) (333 μM, 96 hpf) is listed as 67%. For the same compound, the Mortality result with Zebrafish (Danio rerio) (1 mM, 96 hpf) is recorded as “mortality in all fish”.

Consider `CC(=O)O[C@H]1C(=O)[C@@]2(C)[C@H]([C@H](OC(=O)c3ccccc3)[C@]3(O)C[C@H](OC(=O)[C@H](O)[C@@H](NC(=O)c4ccccc4)c4ccccc4)C(C)=C1C3(C)C)[C@]1(OC(C)=O)CO[C@@H]1C[C@@H]2O` [Paclitaxel, paclitaxel], for which, in series [1], the IC50 was 4 nM.

`FC(F)(F)C(F)(F)C(F)(F)C(F)(F)C(F)(F)C(F)(F)C(F)(F)C(F)(F)Br` [perfluorooctyl bromide]: the “Solubility (in water)” value in series [2] is 5 nM.
